Values of other authors, collected in PubChem BioAssay AID1259409 (Chemical Carcinogenesis Research Information System (CCRIS), 2018).

Test system: rodent chemically induced tumor inhibition, incidence and multiplicity
Assay: CCRIS tumor inhibitor studies
Conditions: Route [Inhibitor]: ORAL, Promoter: NONE USED

CC1=C(/C=C/C(C)=C/C=C/C(C)=C/C(=O)Nc2ccc(O)cc2)C(C)(C)CCC1
tumour outcome (control, treated, inhibition, significance) (Carcinogen: METHYLNITROSOUREA, 684-93-5, Dose [Inhibitor]: 0, 782 MG/KG DIET IN VEHICLE 2 MO PRIOR TO CARCINOGEN DOSE AND CONTINUED UNTIL CARCINOGEN ADMINISTRATION (STUDY DURATION, Species: RAT, Strain/Sex: CD-1/FEMALE, Target Tissue: Type of Lesion: MAMMARY GLAND: BENIGN TUMOR, Dose [Carcinogen]: 50 MG/KG BW ONCE): 10%, 14%, -40%, not calculated
tumour outcome (control, treated, inhibition, significance) (Carcinogen: N-BUTYL-N(4-HYDROXYBUTYL)NITROSAMINE, 3817-11-6, Dose [Inhibitor]: 0, 156 MG/KG DIET FOR 6 MO BEGINNING 1 WK PRIOR TO CARCINOGEN TREATMENT (STUDY DURATION: 6 MO), Species: MOUSE, Strain/Sex: BDF/MALE, Target Tissue: Type of Lesion: URINARY BLADDER: CARCINOMA, Dose [Carcinogen]: 7.5 MG IN 0.1 ML ETHANOL:WATER (20:80) 1/WK FOR 8 WK): 27/70 (39%), 31/67 (46%), -18%, not calculated
tumour outcome (control, treated, inhibition, significance) (Carcinogen: N-BUTYL-N-(4-HYDROXYBUTYL)NITROSAMINE, 3817-11-6, Dose [Inhibitor]: 0, 156 MG/KG DIET BEGINNING 1 WK PRIOR TO CARCINOGEN TREATMENT AND CONTINUING FOR DURATION OF STUDY (STUDY DURATION: 180, Species: MOUSE, Strain/Sex: BDF/MALE, Target Tissue: Type of Lesion: BLADDER: CARCINOMA, Dose [Carcinogen]: 7.5 MG IN 0.1 ML OF ETHANOL:WATER (20:80) 1/WK FOR 8 WK): 25/63 (40%), 27/70 (39%), 3%, not significant
tumour outcome (control, treated, inhibition, significance) (Carcinogen: N-BUTYL-N-(4-HYDROXYBUTYL)NITROSAMINE, 3817-11-6, Dose [Inhibitor]: 0, 313 MG/KG DIET BEGINNING 1 WK PRIOR TO CARCINOGEN TREATMENT AND CONTINUING FOR DURATION OF STUDY (STUDY DURATION: 180, Species: MOUSE, Strain/Sex: BDF/MALE, Target Tissue: Type of Lesion: BLADDER: CARCINOMA, Dose [Carcinogen]: 7.5 MG IN 0.1 ML OF ETHANOL:WATER (20:80) 1/WK FOR 8 WK): 28/65 (43%), 20/67 (30%), 30%, not significant
tumour outcome (control, treated, inhibition, significance) (Carcinogen: N-BUTYL-N-(4-HYDROXYBUTYL)NITROSAMINE, 3817-11-6, Dose [Inhibitor]: 0, 313 MG/KG DIET FOR 6 MO BEGINNING 1 WK PRIOR TO CARCINOGEN TREATMENT (STUDY DURATION: 6 MO), Species: MOUSE, Strain/Sex: BDF/MALE, Target Tissue: Type of Lesion: URINARY BLADDER: CARCINOMA, Dose [Carcinogen]: 7.5 MG IN 0.1 ML ETHANOL:WATER (20:80) 1/WK FOR 8 WK): 30/73 (41%), 28/67 (42%), -2%, not calculated
tumour outcome (control, treated, inhibition, significance) (Carcinogen: N-BUTYL-N-(4-HYDROXYBUTYL)NITROSAMINE, 3817-11-6, Dose [Inhibitor]: 1.5 MMOL/KG DIET DAILY FOR 153 D STARTING ONE WK AFTER THE FINAL CARCINOGEN DOSE (STUDY DURATION: 210 D), Species: MOUSE, Strain/Sex: BDF/MALE, Target Tissue: Type of Lesion: URINARY BLADDER: TRANSITIONAL CELL CARCINOMA, Dose [Carcinogen]: 7.5 MG 1/WK FOR 8 WK): 35/99 (35%), 21/100 (21%), 40%, p<0.05
tumour outcome (control, treated, inhibition, significance) (Carcinogen: N-BUTYL-N-(4-HYDROXYBUTYL)NITROSAMINE, 3817-11-6, Dose [Inhibitor]: 1.5 MMOL/KG IN DIET FOR 153 D STARTING 1 WK AFTER LAST CARCINOGEN DOSE (STUDY DURATION: 210 D), Species: MOUSE, Strain/Sex: DBF1/MALE, Target Tissue: Type of Lesion: URINARY BLADDER: TRANSITIONAL CELL CARCINOMA, Dose [Carcinogen]: 7.5 MG 1/WK FOR 8 WK): 35/99 (35%), 21/100 (21%), 40%, p<0.05
tumour outcome (control, treated, inhibition, significance) (Carcinogen: N-BUTYL-N-(4-HYDROXYBUTYL)NITROSAMINE, 3817-11-6, Dose [Inhibitor]: 391 MG/KG DIET STARTING 1 WK AFTER FINAL CARCINOGEN DOSE AND CONTINUING THROUGH END OF STUDY (STUDY DURATION: 205 D), Species: MOUSE, Strain/Sex: DBF1/MALE, Target Tissue: Type of Lesion: URINARY BLADDER: TRANSITIONAL CELL CARCINOMA, Dose [Carcinogen]: 7.5 MG 1/WK FOR 8 WK): 19/50 (38%), 9/49 (18%), 53%, p<0.05
tumour outcome (control, treated, inhibition, significance) (Carcinogen: N-BUTYL-N-(4-HYDROXYBUTYL)NITROSAMINE, 3817-11-6, Dose [Inhibitor]: 391 MG/KG IN DIET BEGINNING 1 WK AFTER FINAL CARCINOGEN DOSE AND CONTINUING THROUGH END OF STUDY (STUDY DURATION: 205 D), Species: MOUSE, Strain/Sex: DBF1/MALE, Target Tissue: Type of Lesion: URINARY BLADDER: TRANSITIONAL CELL CARCINOMA, Dose [Carcinogen]: 7.5 MG 1/WK FOR 8 WK): 19/50 (38%), 9/49 (18%), 53%, p<0.05
tumour outcome (control, treated, inhibition, significance) (Carcinogen: N-ETHYL-N-NITROSOUREA, 759-73-9, Dose [Inhibitor]: 0, 98 MG/KG DIET FOR DURATION OF STUDY BEGINNING POST CARCINOGEN DOSE (STUDY DURATION: 35 WK), Species: MOUSE, Strain/Sex: PIM/MALE, Target Tissue: Type of Lesion: LYMPHATIC SYSTEM: LYMPHOMA, Dose [Carcinogen]: 50 MG/KG BW ONCE): 21/40 (53%), 13/30 (43%), 19%, not significant
tumour outcome (control, treated, inhibition, significance) (Carcinogen: N-ETHYL-N-NITROSOUREA, 759-73-9, Dose [Inhibitor]: 0, 196 MG/KG DIET FOR DURATION OF STUDY BEGINNING POST CARCINOGEN DOSE (STUDY DURATION: 35 WK), Species: MOUSE, Strain/Sex: PIM/MALE, Target Tissue: Type of Lesion: LYMPHATIC SYSTEM: LYMPHOMA, Dose [Carcinogen]: 50 MG/KG BW ONCE): 21/40 (53%), 15/29 (52%), 2%, not significant
tumour outcome (control, treated, inhibition, significance) (Carcinogen: N-ETHYL-N-NITROSOUREA, 759-73-9, Dose [Inhibitor]: 0, 391 MG/KG DIET FOR DURATION OF STUDY BEGINNING POST CARCINOGEN DOSE (STUDY DURATION: 35 WK), Species: MOUSE, Strain/Sex: PIM/MALE, Target Tissue: Type of Lesion: LYMPHATIC SYSTEM: LYMPHOMA, Dose [Carcinogen]: 50 MG/KG BW ONCE): 21/40 (53%), 16/40 (40%), 26%, not significant
